Laboratory results taken from the supplement of paper PMC13380429.

Tests used:
Conditions in all cases: 72 h
Calu-3 [1] = assay: relative viability EC50 (midpoint between 100% and the lowest measured viability); higher = less toxic
HepG2 [2] = assay: as above
Caco-2 [3] = assay: as above
U2OS [4] = assay: as above
Vero E6 [5] = assay: as above
Calu-3 [6] = assay: drug sensitivity score (DSS) for viability; higher = more toxic; extreme values may be limits of the assay
HepG2 [7] = assay: as above
Caco-2 [8] = assay: as above
U2OS [9] = assay: as above
Vero E6 [10] = assay: as above
Calu-3 [11] = assay: cell viability relative to DMSO; higher = less toxic
HepG2 [12] = assay: as above
Caco-2 [13] = assay: as above
U2OS [14] = assay: as above
Vero E6 [15] = assay: as above

Cc1cccc(COc2cccc(/C=C3\C(=O)NN(c4ccccc4)C3=O)c2)c1 [Y16]
relative viability EC50 (Calu-3 [1]): > 10 µM | relative viability EC50 (HepG2 [2]): > 10 µM | relative viability EC50 (Caco-2 [3]): > 10 µM | relative viability EC50 (U2OS [4]): > 10 µM | relative viability EC50 (Vero E6 [5]): > 10 µM | drug sensitivity score (Calu-3 [6]): 0 | drug sensitivity score (HepG2 [7]): 0 | drug sensitivity score (Caco-2 [8]): 0 | drug sensitivity score (U2OS [9]): 0 | drug sensitivity score (Vero E6 [10]): 0.2 | cell viability (Calu-3 [11]; 1 nM): 104% | cell viability (Calu-3 [11]; 10 nM): 104% | cell viability (Calu-3 [11]; 100 nM): 97.3% | cell viability (Calu-3 [11]; 1000 nM): 102% | cell viability (Calu-3 [11]; 10000 nM): 102% | cell viability (HepG2 [12]; 1 nM): 92.8% | cell viability (HepG2 [12]; 10 nM): 93.5% | cell viability (HepG2 [12]; 100 nM): 98.3% | cell viability (HepG2 [12]; 1000 nM): 103% | cell viability (HepG2 [12]; 10000 nM): 87.6% | cell viability (Caco-2 [13]; 1 nM): 100% | cell viability (Caco-2 [13]; 10 nM): 97.9% | cell viability (Caco-2 [13]; 100 nM): 101% | cell viability (Caco-2 [13]; 1000 nM): 93.6% | cell viability (Caco-2 [13]; 10000 nM): 100% | cell viability (U2OS [14]; 1 nM): 99.5% | cell viability (U2OS [14]; 10 nM): 98.4% | cell viability (U2OS [14]; 100 nM): 97.9% | cell viability (U2OS [14]; 1000 nM): 93.6% | cell viability (U2OS [14]; 10000 nM): 97.8% | cell viability (Vero E6 [15]; 1 nM): 98.5% | cell viability (Vero E6 [15]; 10 nM): 96.7% | cell viability (Vero E6 [15]; 100 nM): 98.8% | cell viability (Vero E6 [15]; 1000 nM): 96.8% | cell viability (Vero E6 [15]; 10000 nM): 87.8%

Cn1c(C#N)ccc1-c1ccc2c(c1)C(C)(C)OC(=S)N2 [tanaproget]
relative viability EC50 (Calu-3 [1]): > 10 µM | relative viability EC50 (HepG2 [2]): 1.86 µM | relative viability EC50 (Caco-2 [3]): > 10 µM | relative viability EC50 (U2OS [4]): > 10 µM | relative viability EC50 (Vero E6 [5]): > 10 µM | drug sensitivity score (Calu-3 [6]): 0 | drug sensitivity score (HepG2 [7]): 6.3 | drug sensitivity score (Caco-2 [8]): 1.7 | drug sensitivity score (U2OS [9]): 0 | drug sensitivity score (Vero E6 [10]): 0 | cell viability (Calu-3 [11]; 1 nM): 105% | cell viability (Calu-3 [11]; 10 nM): 106% | cell viability (Calu-3 [11]; 100 nM): 101% | cell viability (Calu-3 [11]; 1000 nM): 108% | cell viability (Calu-3 [11]; 10000 nM): 88.9% | cell viability (HepG2 [12]; 1 nM): 106% | cell viability (HepG2 [12]; 10 nM): 109% | cell viability (HepG2 [12]; 100 nM): 95.8% | cell viability (HepG2 [12]; 1000 nM): 87% | cell viability (HepG2 [12]; 10000 nM): 24.7% | cell viability (Caco-2 [13]; 1 nM): 98% | cell viability (Caco-2 [13]; 10 nM): 101% | cell viability (Caco-2 [13]; 100 nM): 100% | cell viability (Caco-2 [13]; 1000 nM): 94.8% | cell viability (Caco-2 [13]; 10000 nM): 75.4% | cell viability (U2OS [14]; 1 nM): 102% | cell viability (U2OS [14]; 10 nM): 103% | cell viability (U2OS [14]; 100 nM): 102% | cell viability (U2OS [14]; 1000 nM): 103% | cell viability (U2OS [14]; 10000 nM): 94.9% | cell viability (Vero E6 [15]; 1 nM): 102% | cell viability (Vero E6 [15]; 10 nM): 103% | cell viability (Vero E6 [15]; 100 nM): 98.2% | cell viability (Vero E6 [15]; 1000 nM): 105% | cell viability (Vero E6 [15]; 10000 nM): 107%

CCC1=C(C)CN(C(=O)NCCc2ccc(S(=O)(=O)NC(=O)N[C@H]3CC[C@H](C)CC3)cc2)C1=O [glimepiride]
relative viability EC50 (Calu-3 [1]): > 10 µM | relative viability EC50 (HepG2 [2]): > 10 µM | relative viability EC50 (Caco-2 [3]): > 10 µM | relative viability EC50 (U2OS [4]): > 10 µM | relative viability EC50 (Vero E6 [5]): > 10 µM | drug sensitivity score (Calu-3 [6]): 0 | drug sensitivity score (HepG2 [7]): 0 | drug sensitivity score (Caco-2 [8]): 1.8 | drug sensitivity score (U2OS [9]): 0 | drug sensitivity score (Vero E6 [10]): 0 | cell viability (Calu-3 [11]; 1 nM): 98.6% | cell viability (Calu-3 [11]; 10 nM): 104% | cell viability (Calu-3 [11]; 100 nM): 91.7% | cell viability (Calu-3 [11]; 1000 nM): 104% | cell viability (Calu-3 [11]; 10000 nM): 98.6% | cell viability (HepG2 [12]; 1 nM): 83.1% | cell viability (HepG2 [12]; 10 nM): 90.7% | cell viability (HepG2 [12]; 100 nM): 104% | cell viability (HepG2 [12]; 1000 nM): 98.7% | cell viability (HepG2 [12]; 10000 nM): 104% | cell viability (Caco-2 [13]; 1 nM): 87.2% | cell viability (Caco-2 [13]; 10 nM): 94.3% | cell viability (Caco-2 [13]; 100 nM): 98.9% | cell viability (Caco-2 [13]; 1000 nM): 91.4% | cell viability (Caco-2 [13]; 10000 nM): 76.2% | cell viability (U2OS [14]; 1 nM): 98.9% | cell viability (U2OS [14]; 10 nM): 99.2% | cell viability (U2OS [14]; 100 nM): 97.7% | cell viability (U2OS [14]; 1000 nM): 99.8% | cell viability (U2OS [14]; 10000 nM): 92.1% | cell viability (Vero E6 [15]; 1 nM): 111% | cell viability (Vero E6 [15]; 10 nM): 110% | cell viability (Vero E6 [15]; 100 nM): 105% | cell viability (Vero E6 [15]; 1000 nM): 91.9% | cell viability (Vero E6 [15]; 10000 nM): 95.3%

O=C(O)Cc1ccc(OCCNC[C@H](O)c2ccccc2)cc1 [ZD-2079]
relative viability EC50 (Calu-3 [1]): > 10 µM | relative viability EC50 (HepG2 [2]): > 10 µM | relative viability EC50 (Caco-2 [3]): > 10 µM | relative viability EC50 (U2OS [4]): > 10 µM | relative viability EC50 (Vero E6 [5]): > 10 µM | drug sensitivity score (Calu-3 [6]): 0 | drug sensitivity score (HepG2 [7]): 0 | drug sensitivity score (Caco-2 [8]): 0 | drug sensitivity score (U2OS [9]): 0 | drug sensitivity score (Vero E6 [10]): 0 | cell viability (Calu-3 [11]; 1 nM): 98.5% | cell viability (Calu-3 [11]; 10 nM): 92.7% | cell viability (Calu-3 [11]; 100 nM): 105% | cell viability (Calu-3 [11]; 1000 nM): 98% | cell viability (Calu-3 [11]; 10000 nM): 96.2% | cell viability (HepG2 [12]; 1 nM): 109% | cell viability (HepG2 [12]; 10 nM): 110% | cell viability (HepG2 [12]; 100 nM): 107% | cell viability (HepG2 [12]; 1000 nM): 101% | cell viability (HepG2 [12]; 10000 nM): 94.3% | cell viability (Caco-2 [13]; 1 nM): 92.1% | cell viability (Caco-2 [13]; 10 nM): 102% | cell viability (Caco-2 [13]; 100 nM): 104% | cell viability (Caco-2 [13]; 1000 nM): 99.3% | cell viability (Caco-2 [13]; 10000 nM): 95% | cell viability (U2OS [14]; 1 nM): 102% | cell viability (U2OS [14]; 10 nM): 94.8% | cell viability (U2OS [14]; 100 nM): 107% | cell viability (U2OS [14]; 1000 nM): 98.5% | cell viability (U2OS [14]; 10000 nM): 104% | cell viability (Vero E6 [15]; 1 nM): 104% | cell viability (Vero E6 [15]; 10 nM): 100% | cell viability (Vero E6 [15]; 100 nM): 98.8% | cell viability (Vero E6 [15]; 1000 nM): 102% | cell viability (Vero E6 [15]; 10000 nM): 100%

CC(C)[C@H](NS(=O)(=O)c1ccc(-c2ccc(Br)cc2)cc1)C(=O)O
relative viability EC50 (Calu-3 [1]): > 10 µM | relative viability EC50 (HepG2 [2]): > 10 µM | relative viability EC50 (Caco-2 [3]): > 10 µM | relative viability EC50 (U2OS [4]): > 10 µM | relative viability EC50 (Vero E6 [5]): > 10 µM | drug sensitivity score (Calu-3 [6]): 0 | drug sensitivity score (HepG2 [7]): 0 | drug sensitivity score (Caco-2 [8]): 0 | drug sensitivity score (U2OS [9]): 0 | drug sensitivity score (Vero E6 [10]): 0 | cell viability (Calu-3 [11]; 1 nM): 106% | cell viability (Calu-3 [11]; 10 nM): 102% | cell viability (Calu-3 [11]; 100 nM): 91.4% | cell viability (Calu-3 [11]; 1000 nM): 104% | cell viability (Calu-3 [11]; 10000 nM): 92.9% | cell viability (HepG2 [12]; 1 nM): 98.3% | cell viability (HepG2 [12]; 10 nM): 109% | cell viability (HepG2 [12]; 100 nM): 87.8% | cell viability (HepG2 [12]; 1000 nM): 110% | cell viability (HepG2 [12]; 10000 nM): 110% | cell viability (Caco-2 [13]; 1 nM): 96.3% | cell viability (Caco-2 [13]; 10 nM): 86.2% | cell viability (Caco-2 [13]; 100 nM): 93.5% | cell viability (Caco-2 [13]; 1000 nM): 92.6% | cell viability (Caco-2 [13]; 10000 nM): 89.8% | cell viability (U2OS [14]; 1 nM): 101% | cell viability (U2OS [14]; 10 nM): 97.5% | cell viability (U2OS [14]; 100 nM): 99.5% | cell viability (U2OS [14]; 1000 nM): 96.4% | cell viability (U2OS [14]; 10000 nM): 102% | cell viability (Vero E6 [15]; 1 nM): 93.2% | cell viability (Vero E6 [15]; 10 nM): 95.9% | cell viability (Vero E6 [15]; 100 nM): 87.7% | cell viability (Vero E6 [15]; 1000 nM): 92.2% | cell viability (Vero E6 [15]; 10000 nM): 102%
